According to patent publication US9937182B2, “Therapeutic strategies for the treatment of preeclampsia” (UNIVERSITY OF IOWA RESEARCH FOUNDATION, priority 2013, dated 2018):
Entries after “also recorded” stand apart in the source; their conditions may differ. Like-named read-outs stand apart in the source and are kept apart here.

Assays:
[1] = system: 2°-branch mesenteric artery; assay: Mesenteric artery vascular reactivity (pressurized myography); type: cell-based, mice; details: for Emax: Mus musculus, read-out: Maximum Response
Method: Mesenteric Artery Vascular Reactivity: Secondary branches of mesenteric artery were dissected and placed in chilled oxygenated (21% O2, 5% CO2, and 74% N2) Kreb's buffer. A segment (˜1 mm long) of artery was transferred to a vessel chamber (DMT), cannulated with glass micropipettes and secured with silk ligatures. The artery was slowly pressurized to 40 mmHg without flow. After 30 min equilibration, vessel viability was tested by constriction response to 100 mM KCl. Vascular responses to PE (10-9-10-5 mol/L), AVP (10-12-10-7 mol/L), and ET-1 (10-11-10-8 mol/L) were then assessed. The artery was then superfused with calcium-free Krebs buffer containing 10-5 mol/L sodium nitroprusside and 2 mmol/L EGTA to maximally dilate the vessel. Internal and external diameters were measured at 75 mm Hg. Wall thickness, media/lumen ratio and cross sectional area (CSA) were calculated as previously described by Neves, et al. (62).
(§1) Statistics: Data were analyzed by ANOVA with repeated measures as appropriate. Post-hoc analyses were performed using Bonferroni multiple-comparisons procedures. EC50 and maximum response calculations were performed by fitting individual dose-response data sets to a four-parameter logistic function (Hillslope method); y=min+([…])/(1+(x/EC50)^Hillslope). All mRNA fold changes were calculated using the Livak method (54). All analytical comparisons were performed using SigmaStat/SigmaPlot (Systat). All data are presented as mean±sem.

abdominal aorta = assay: Abdominal aortic ring vascular reactivity (organ bath); type: cell-based, mice; details: for Emax: Mus musculus, relaxation after PGF2α contraction, read-out: Maximum Response; for Maximum Response: contractile response
Method: Aortic Vascular Reactivity: Abdominal aortic rings were assessed for vascular reactivity as previously described (32). Briefly, mice were euthanized by overdose of pentobarbital (50 mg, i.p.), and the abdominal aorta was quickly removed and placed in Kreb's buffer containing (in mmol/L): 118.3 NaCl, 4.7 KCl, 1.2 MgSO4, 1.2 KH2PO4, 25 NaHCO3, 2.5 CaCl2 and 11 glucose. Vascular rings (4-5 mm in length) were suspended in oxygenated Kreb's buffer (95% O2/5% CO2) in organ baths at 37° C. and connected to a force transducer via steel hooks. Resting tension was adjusted to 0.5 grams over 45 minutes. Contractile responses were tested in response to AVP (10^−10-10^−6 mol/L), phenylephrine (PE, 10^−8-3×10^−5), endothelin-1 (ET-1, 10^−10-10^−7), prostaglandin F2α (PGF2α, 10^−7-10^−4), and angiotensin II (Ang II, 10^−10-10^−7). Following sub-maximal contraction with PGF2α (40-50% of max; 3×10^−6-6×10^−6), relaxation responses to acetylcholine (10^−8-3×10^−5) and sodium nitroprusside (10^−9-10^−5) were determined.
as §1

sRA mice [2] = assay: Tail-cuff systolic blood pressure during chronic subcutaneous antagonist infusion; type: in vivo; details: 22 ng/h sc, 10 days chronic infusion
sRA mice [3] = assay: Radiotelemetric blood pressure, heart rate and physical activity during antagonist infusion; type: in vivo
Method: Blood pressure (telemetry). Radiotelemetric blood pressures were recorded from the carotid artery essentially as previously reported (29). Briefly, a telemeter probe (DSI, model TA11PA-C10) was inserted into the common carotid artery under ketamine-xylazine anesthesia. After >2 days of recovery, blood pressure, heart rate, and spontaneous physical activity were recorded for 30 s every 5 min using the Dataquest program (DSI). After baseline recordings, mice were chronically delivered conivaptan and tolvaptan via osmotic minipump that was implanted through an interscapular incision into the subcutaneous space of the back under isoflurane anesthesia.

[4] = system: sRA and control littermate mice; assay: Blood chemistry following tolvaptan infusion (iSTAT CHEM8+); type: in vivo; details: for Crenfinine: lower detection limit 0.20 mg/dl
Method: Blood pressure (tail-cuff). Here we first examined blood pressure in sRA mice using a Visitech Systems BP-2000 tail-cuff blood pressure monitoring system, as previously described (84). Briefly, animals were acclimated to warmed restraint boxes daily for 1 wk. Once acclimated, 30 measurements of systolic blood pressure were averaged from each animal daily for 2 wk to assess baseline blood pressure. Conivaptan (Vaprisol, YM 087, 22 ng/h sc, Baxter Healthcare) or tolvaptan (OPC-41061, 22 ng/h sc, Sigma Aldrich) was delivered to distinct subsets of mice by osmotic minipump (model 1004, Alzet). After osmotic minipump implantation, pressures were recorded daily for 10 days to assess drug effects.
Blood and urine analyses: Plasma was obtained by collecting whole blood by submandibular bleed into lithium heparin coated tubes, then centrifuged at 5,000×g for 5 minutes, and the supernatant transferred to a fresh tube and frozen at −80° C. until analysis. Urine was collected using Nalgene single-mouse metabolism cages as previously described (29). Copeptin was measured using an ELISA kit (USCN Life Sciences), according to the manufacturer's instructions. Blood chemistries and urine creatinine were determined using a handheld iSTAT clinical chemistry analyzer (Abbott), with CHEM8+ cartridges. Urine protein was determined using a bicinchoninic acid assay kit (Thermo Fisher/Pierce), according to the manufacturer's instructions.

[5] = system: polycystic kidney disease; details: average dose 95 mg per day over 3 years, cited from earlier work
[6] = system: patients with heart failure; details: with traditional diuretics; cited from earlier work
DOCA-salt hypertension = details: rats, intracerebroventricular (ICV) infusion; cited from earlier work
[7] = system: sRA mice and littermate controls; assay: Plasma vasopressin (ELISA) after BH4 treatment; type: in vivo; details: BH4 10 mg/kg/day i.p., three days
Method: Methods: Double-transgenic sRA mice and littermate controls were placed into single-mouse metabolic cages (Nalgene), and maintained on a 12:12 light:dark cycle at 22° C. with ad libitum access to standard chow (Teklad 7013) and water. Mice were injected once daily (i.p.) with BH4 to achieve 10 mg/kg/day. On the fourth day, mice were sacrificed by CO2 asphyxiation and trunk blood was collected into lithium heparin-coated tubes and placed on ice between 11:30 AM and 1:00 PM (5.5 to 7 hours into the light phase of the standard light cycle). Blood was then centrifuged at 2,000×g for 20 minutes. Plasma was collected and stored at −80° C. until analysis. Plasma samples were analyzed for vasopressin using a commercially-available ELISA kit (Cayman, catalog #583951), according to the manufacturer's instructions. Results falling outside the range of the standard curve (>3,000 pg/mL or <23.4 pg/mL) were set to the maximum or minimum (3,000 or 23.4 pg/mL), respectively, for statistical comparisons. Data were analyzed by three-way ANOVA followed by Tukey all-pairwise multiple comparison procedures.

rats = details: euhydrated vs dehydrated; cited from earlier work
[8] = system: isolated neurointermediate lobes; details: baseline and potassium-stimulated conditions; cited from earlier work
[9] = exemplar female sRA mouse, conivaptan 22 ng/h sc, 18 days
[10] = males, Control mice, tolvaptan 22 ng/h, 10 days sc

Molecule `CNC[C@H](O)c1cccc(O)c1` [Phenylephrine] has an Emax ([1]; male Control mice) of 67.3 ± 3% and an Emax ([1]; male sRA mice) of 64.5 ± 4.1%.
In the case of `CC(=O)OCC[N+](C)(C)C` [Acetylcholine], the Emax (abdominal aorta; male Control mice) is reported as 78.9 ± 3.3% and the Emax (abdominal aorta; male sRA mice) is reported as 70.4 ± 8.9%.
In the case of `Cc1nc2c([nH]1)-c1ccccc1N(C(=O)c1ccc(NC(=O)c3ccccc3-c3ccccc3)cc1)CC2` [Conivaptan, N-(4-((4,5-dihydro-2-methylimidazo[4,5-d][1]benzazepin-6(1H)-yl)carbonyl)phenyl)-(1,1′-biphenyl)-2-carboxamide], the “systolic blood pressure (tail-cuff)” value (sRA mice [2]) is reported as “complete normalization of the hypertension”, the “blood pressure (telemetry, MAP)” value (sRA mice [3]; [9]) is reported as “gradual but substantial reduction in blood pressure” and the “heart rate (telemetry)” value (sRA mice [3]; [9]) is reported as “slight reduction in heart rate”. The spontaneous physical activity (sRA mice [3]; [9]) was “remained normal”.
With `CC[C@H](C)[C@H](NC(=O)[C@H](Cc1ccc(O)cc1)NC(=O)[C@@H](NC(=O)[C@H](CCCNC(=N)N)NC(=O)[C@@H](N)CC(=O)O)C(C)C)C(=O)N[C@@H](Cc1c[nH]cn1)C(=O)N1CCC[C@H]1C(=O)N[C@@H](Cc1ccccc1)C(=O)O` [Angiotensin II] the “Maximum Response” value (abdominal aorta; male Control mice) was 0.32 ± 0.03 g and the “Maximum Response” value (abdominal aorta; male sRA mice) was 0.38 ± 0.03 g.
In the case of `Cc1ccccc1C(=O)Nc1ccc(C(=O)N2CCC[C@@H](O)c3cc(Cl)ccc32)c(C)c1` [Tolvaptan, N-(4-[[(5R)-7-chloro-5-hydroxy-2,3,4,5-tetrahydro-1H-1-benzazepin-1-yl]carbonyl]-3-methylphenyl)-2-methylbenzamide], the “systolic blood pressure (tail-cuff)” value (sRA mice [2]) is reported as “nearly identical normalization of blood pressure”, the “hyponatremia and hypocalcemia of sRA mice” value ([4]; chronic tolvaptan delivery, genotype X drug interaction P<0.05 for both) is reported as “corrected both of these imbalances” and the Crenfinine ([4]; females, Control mice, tolvaptan 22 ng/h, 10 days sc) is reported as 0.24 ± 0.02 mg/dL. The Crenfinine ([4]; females, sRA mice, tolvaptan 22 ng/h, 10 days sc) was 0.33 ± 0.04 mg/dL, the Sodium [4, 10] was 148 mM and the Crenfinine [4, 10] was 0.25 ± 0.03 mg/dL. For the same molecule, the Crenfinine ([4]; males, sRA mice, tolvaptan 22 ng/h, 10 days sc) was 0.30 ± 0.04 mg/dL, the “reduction of the decline in kidney function compared with placebo” value [5] was “approximately 30%” and the “slowing of the usual increase in kidney volume compared to placebo” value [5] was 50%. The “increase in kidney volume” value ([5]; placebo 5.51, p<0.001) was 2.80 % per year, the reciprocal serum creatinine ([5]; placebo −3.81, p<0.001) was −2.61 (mg/mL)-1 per year and the “blood pressure (radiotelemetry, MAP)” value (sRA mice [3]; cohort of sRA mice (n=4 female), tolvaptan sc infusion 10 days) was “blood pressure reduction was confirmed”. For the same molecule, the “excretion of excess fluids and blood sodium levels” value [6] was “increase excretion of excess fluids and improve blood sodium levels” and the side effects [6] was “without producing side effects such as hypotension (low blood pressure) or hypokalemia”.
In the case of `C[C@H](CS)C(=O)N1CCC[C@H]1C(=O)O` [captopril], the DOCA-salt hypertension (DOCA-salt hypertension) is given as “both prevented and reversed DOCA-salt hypertension”.
In the case of `CCCCC[C@H](O)/C=C/[C@@H]1[C@@H](C/C=C\CCCC(=O)O)[C@@H](O)C[C@H]1O` [Prostaglandin F2α], the “Maximum Response” value (abdominal aorta; male Control mice) is reported as 1.59 ± 0.06 g and the “Maximum Response” value (abdominal aorta; male sRA mice) is reported as 1.50 ± 0.10 g.
For `C[C@H](O)[C@H](O)[C@H]1CNc2[nH]c(N)nc(=O)c2N1` [BH4, (6R)-2-Amino-6-[(1R,2S)-1,2-dihydroxypropyl]-5,6,7,8-tetrahydropteridin-4(1H)-one], the “steady-state plasma AVP levels” value ([7]; control littermate mice) is listed as “no effect on steady-state AVP levels; also recorded: unchanged”, the “steady-state plasma AVP levels” value ([7]; sRA mice) is listed as “significant (P=0.017) reduction; also recorded: significantly (*P=0.017) reduced” and the neurohypophysial vasopressin (rats) is listed as “reduces neurohypophysial vasopressin under euhydrated but not dehydrated conditions”. For the same molecule, the vasopressin content [8] was “reduces vasopressin content”.
With `CC[C@H](C)[C@H](NC(=O)[C@H](CC(=O)O)NC(=O)[C@H](CC(C)C)NC(=O)[C@H](Cc1c[nH]cn1)NC(=O)[C@@H]1CSSC[C@H](N)C(=O)N[C@@H](CO)C(=O)N[C@H]2CSSC[C@H](NC(=O)[C@H](CCC(=O)O)NC(=O)[C@H](CCCCN)NC(=O)[C@H](CC(=O)O)NC(=O)[C@H](CCSC)NC(=O)[C@H](CC(C)C)NC(=O)[C@H](CO)NC(=O)[C@H](CO)NC2=O)C(=O)N[C@@H](C(C)C)C(=O)N[C@@H](Cc2ccc(O)cc2)C(=O)N[C@@H](Cc2ccccc2)C(=O)N1)C(=O)N[C@H](C(=O)N[C@@H](Cc1c[nH]c2ccccc12)C(=O)O)[C@@H](C)CC` [Endothelin-1] the “Maximum Response” value (abdominal aorta; male Control mice) was 0.45 ± 0.04 g, the “Maximum Response” value (abdominal aorta; male sRA mice) was 0.55 ± 0.09 g and the “Maximum Response” value ([1]; male Control mice) was 67.8 ± 4.3%. For the same molecule, the “Maximum Response” value ([1]; male sRA mice) was 58.0 ± 4.6%.
